Assay results taken from article PMC6770469, “IDE Degrades Nociceptin/Orphanin FQ through an Insulin Regulated Mechanism” (International Journal of Molecular Sciences, 2019).
Where a SMILES comes first, the peptide text is derived from it. Where no end group is shown, it is not given here. [ ]: non-standard residue; d: D form. The star is where a group is joined. Sta = CC(C)C[C@H](N)[C@@H](O)CC(=O)O; Isovaleryl = CC(C)CC(=O)*

Experiments:
[1] = system: rat spinal cord peptidases; assay: OFQ/N cleavage by rat spinal cord homogenate with peptidase inhibitors (MALDI-MS); type: biochemical; details: rat spinal cord extract, 20 mM Tris-HCl 1 mM EDTA pH 7.8, 37 °C, 30 min; for inhibition of the cleavage of OFQ/N into the bioactive fragments (1-11), (1-7), (1-6): TPCK 1 mM, PMSF 1 mM, NEM 1 mM (Figure 6); for inhibition of the formation of the (1-11) fragment from OFQ/N: PHMB 0.25 mM, pepstatin A 0.01 mM (Figure 6)
Description: Tissue homogenate preparation: One rat spinal cord tissue was homogenized in 1 mL of ice-cold 20 mM Tris-HCl (Sigma, Milan, Italy) and 1 mM EDTA (Sigma, Milan, Sigma) using mechanical homogenizer. The obtained homogenate was centrifuged at 5000× g for 15 min at 4 °C. The supernatant was then centrifuged at 20,000× g for 15 min at 4 °C. Finally, the supernatant was divided into small aliquots and kept frozen at −80 °C [13].
Tissue extract (supernatant) incubation assays: Incubations were performed using one microliter of tissue extract diluted with 19 µL of 20 mM Tris-HCl 1 mM EDTA buffer pH 7.8 and 10 µL of Milli-Q water. Then, the reaction was initiated by the addition of 10 µL of OFQ/N 0.3 mM and continued at 37 °C for 30 min. Then, 40 µL of ice-cold methanol was used to stop the reaction. Incubation was repeated as mentioned above but adding different peptidase inhibitors. The inhibitors used for the incubation were: TPCK (tosyl phenylalanyl chloromethyl ketone) 1 mM, PMSF (phenylmethylsulfonyl fluoride) 1 mM, NEM (N-ethylmaleimide) 1 mM, PHMB (4-(hydroxymercuri)benzoic acid) 0.25 mM, pepstatin A 0.01 mM, and Ag^+ 1 mM. Enzyme assay including spinal cord homogenate was also validated using dynorphin B, as described previously. One microliter aliquots taken from each incubation mixture were analyzed using MALDI mass spectrometry. α-Cyano-4-hydroxycinnamic acid (4-HCCA) was used as matrix, and the final samples were spotted onto AnchorChip™ plate (Bruker Daltonics, 2013). The standard used for the calibration of the instrument is the Peptide Calibration Standard II by Bruker Daltonics, Macerata, Italy. Details and parameters of the instrument set-up were: mass range: 340–4000 Da; detector gain/reflector: 6.3x (2480 V); sample rate and digitizer settings: 2.50 GS/s; smartbeam parameter set: 4_large; positive ion mode; matrix suppression: off; random walk: complete sample; shots at raster spot: 200; limit diameter to: 800 µm; laser power: 20%; shots: 5000.

mouse = details: cited from earlier work
[2] = biological target: T1, insulin-degrading enzyme (IDE) (Homo sapiens, UniProt P14735); assay: IDE degradation assays (time-course hydrolysis of the substrate, UPLC-HRMS); type: in vitro ADME
T1 construct: purchased Giotto Biotech, Florence, Italy
T1 sequence (P14735 whole entry, species assumed): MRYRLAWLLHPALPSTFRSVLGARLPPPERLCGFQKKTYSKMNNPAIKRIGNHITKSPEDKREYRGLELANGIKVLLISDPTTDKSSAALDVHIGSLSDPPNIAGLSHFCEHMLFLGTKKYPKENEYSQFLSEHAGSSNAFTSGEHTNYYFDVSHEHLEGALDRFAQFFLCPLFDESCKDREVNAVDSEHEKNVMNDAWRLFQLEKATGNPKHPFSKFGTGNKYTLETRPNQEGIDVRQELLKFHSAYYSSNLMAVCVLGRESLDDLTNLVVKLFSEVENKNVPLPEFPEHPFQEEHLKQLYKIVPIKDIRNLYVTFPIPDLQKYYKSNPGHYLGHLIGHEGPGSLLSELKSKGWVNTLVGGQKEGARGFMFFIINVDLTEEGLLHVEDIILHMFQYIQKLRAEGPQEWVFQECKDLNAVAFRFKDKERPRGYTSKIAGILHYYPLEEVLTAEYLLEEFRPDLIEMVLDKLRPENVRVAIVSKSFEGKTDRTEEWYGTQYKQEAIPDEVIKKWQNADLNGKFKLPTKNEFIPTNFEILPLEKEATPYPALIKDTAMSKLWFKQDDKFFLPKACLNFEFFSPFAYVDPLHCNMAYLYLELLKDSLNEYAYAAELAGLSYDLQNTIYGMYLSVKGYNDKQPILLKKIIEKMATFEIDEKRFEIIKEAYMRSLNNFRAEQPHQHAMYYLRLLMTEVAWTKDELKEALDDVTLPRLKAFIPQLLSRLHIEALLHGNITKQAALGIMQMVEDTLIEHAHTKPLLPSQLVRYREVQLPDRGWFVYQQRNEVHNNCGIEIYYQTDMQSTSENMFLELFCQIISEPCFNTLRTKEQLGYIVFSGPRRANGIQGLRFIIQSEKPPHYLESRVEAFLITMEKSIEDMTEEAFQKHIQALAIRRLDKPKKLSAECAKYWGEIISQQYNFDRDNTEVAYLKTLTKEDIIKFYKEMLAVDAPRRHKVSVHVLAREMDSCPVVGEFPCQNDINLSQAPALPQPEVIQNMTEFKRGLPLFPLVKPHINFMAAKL
Description: IDE degradation assays: Insulin (Ins, 2 µM, purchased from Sigma, Milan, Italy) and nociceptin peptide (OFQ/N, 2 µM, synthesized by the Fmoc solid phase synthesis and purified in our laboratory using RP HPLC) were tested for their purity using electrospray mass spectrometry (over 98% purity), and hydrolyzed in the presence of insulin-degrading enzyme (IDE, 30 nM, purchased from Giotto Biotech, Florence, Italy) in phosphate buffer 1 mM (pH 7.4, Sigma). We applied 1-16 sequence of OFQ/N because there is no difference in binding of this fragment to NOP receptors. Ins and OFQ/N were hydrolyzed both separately and in a mixture. Moreover, a pre-incubation of OFQ/N with IDE for 20 min was also performed before the addition of Ins. In order to quench the reaction, the samples were diluted 1:1 with 1% TFA aqueous solution.
The peptide content of all samples was analyzed using a Q Exactive hybrid quadrupole-Orbitrap mass spectrometer (Thermo Scientific, Milan, Italy) coupled to an Ultimate 3000 HPLC RSLCnano system (Dionex Thermo Scientific, Milan, Italy) through an EASY-Spray source (Thermo Scientific, Milan, Italy) by using the instrument settings previously reported.

Cc1ccc(S(=O)(=O)N[C@@H](Cc2ccccc2)C(=O)CCl)cc1 [TPCK, tosyl phenylalanyl chloromethyl ketone]
inhibition of the cleavage of OFQ/N into the bioactive fragments (1-11), (1-7), (1-6) [1]: not efficiently inhibited

CC(C)CC(=O)N[C@H](C(=O)N[C@H](C(=O)N[C@@H](CC(C)C)[C@@H](O)CC(=O)N[C@@H](C)C(=O)N[C@@H](CC(C)C)[C@@H](O)CC(=O)O)C(C)C)C(C)C [Pepstatin A] (Isovaleryl-VV[Sta]A[Sta]-OH)
inhibition of the formation of the (1-11) fragment from OFQ/N [1]: slightly inhibits

(1-6): OFQ/N fragment (1-6), final product from (1-11) (FGGFTG; Nociceptin; UniProt Q13519 130-135, looked up, fragment)
effect in different analgesic tests (bi-phasic) (mouse; after ICV (Intracerebroventricular) and intrathecal injection, as reported in the literature): antinociception followed by a hyperalgesia

(1-7): OFQ/N fragment (1-7), bioactive shorter sequence (FGGFTGA; Nociceptin; UniProt Q13519 130-136, looked up, fragment)
effect on hyperalgesia induced by OFQ/N (mouse; injected in mice): blocks hyperalgesia

CCN1C(=O)C=CC1=O [NEM, N-ethylmaleimide]
inhibition of the cleavage of OFQ/N into the bioactive fragments (1-11), (1-7), (1-6) [1]: does not show inhibition

O=C(O)c1cc[c]([Hg][OH])cc1 [PHMB, 4-(hydroxymercuri)benzoic acid]
inhibition of the formation of (1-7) and (1-6) from OFQ/N ([1]; PHMB 0.25 mM (Figure 6)): inhibits
inhibition of the formation of the (1-11) fragment from OFQ/N [1]: blocks the formation of the (1-11)fragment more than all the other inhibitors

FGGFTGARKSARKLAN [OFQ/N, Nociceptin/Orphanin 1-16]
time within which the substrate was almost completely degraded by IDE ([2]; OFQ/N 2 µM alone, IDE 30 nM, phosphate buffer 1 mM pH 7.4, 37 °C, LC-MS (Figure 3A)): ≤ 10 min
OFQ/N content as % of the original value ([2]; OFQ/N and Ins 1:1 molar ratio (2 µM each) co-incubated with IDE 30 nM, phosphate buffer 1 mM pH 7.4, 37 °C, 30 min reaction, LC-MS (Figure 3B)): 80%
content of OFQ/N, fold lower than its starting value ([2]; after 20 min pre-incubation of OFQ/N 2 µM with IDE 30 nM at 37 °C, before addition of Ins, phosphate buffer 1 mM pH 7.4, LC-MS (Figure 4A)): 5 fold

O=S(=O)(F)Cc1ccccc1 [PMSF, phenylmethylsulfonyl fluoride]
inhibition of the cleavage of OFQ/N into the bioactive fragments (1-11), (1-7), (1-6) [1]: not efficiently inhibited
